Measurements as given in US5686486A, “4-hydroxy-benzopyran-2-ones and 4-hydroxy-cycloalkyl[b]pyran-2-ones useful to treat retroviral infections” (priority 1995, dated 1997).

Assays:
[1] = biological target: T1, HIV-1 protease (Human immunodeficiency virus type 1 group M subtype B, UniProt P04585); experiment: biochemical; conditions: for inhibition at 0.123 µM: read-out: HIV-1 Protease % Inhib, dose 0.123 uM; for inhibition at 0.37 µM: read-out: HIV-1 Protease % Inhib, dose 0.370 uM; for inhibition at 1.1 µM: read-out: HIV-1 Protease % Inhib, dose 1.100 uM; for inhibition at 3.3 µM: read-out: HIV-1 Protease % Inhib, dose 3.300 uM; for inhibition at 10 µM: read-out: HIV-1 Protease % Inhib, dose 10.000 uM; for inhibition at 30 µM: read-out: HIV-1 Protease % Inhib, dose 30.000 uM
Outline: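 Biotinylated, FITC-labeled peptide substrate (20 μl of 0.2 μM) incubated with HIV-1 protease (10 μl of 0.1 μM) and compound in 0.1 M sodium acetate pH 5.5, 1.0 M NaCl, 0.05% NP-40, 1 h, room temperature, dark. Streptavidin beads then capture uncleaved substrate; filtered labeled product read by fluorescence, giving percent inhibition.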

[2] = biological target: T1, HIV-1 protease; experiment: biochemical; conditions: read-out: HIV-1 FITC KI
Outline: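 Ki from two-fold serial inhibitor dilutions (24–48 concentrations) with 40 nM HIV-1 protease stock and 200 μM substrate stock, 90 min at room temperature; stopped with avidin beads. Reference inhibitor run in parallel; Ki by nonlinear least-squares fit.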

Compound | inhibition at 0.123 µM [1] | inhibition at 0.37 µM [1] | inhibition at 1.1 µM [1] | inhibition at 3.3 µM [1] | inhibition at 10 µM [1] | inhibition at 30 µM [1] | Ki [2]
O=c1oc2c(c(O)c1C(c1cccc(NS(=O)(=O)c3ccc(-c4ccon4)s3)c1)C1CC1)CCCCCC2 (stereo not drawn) [Example 347, N-[3-[Cyclopropyl(5,6,7,8,9,10-hexahyro-4-hydroxy-2-oxo-2H-cycloocta[b]pyran-3-yl)methyl]phenyl]-5-(3-isoxazolyl)-2-thiophenesulfonamide] | 79.8% | 92.2% | 103% | 100% | 102% | 103% | 2.5 nM
O=c1oc2c(c(O)c1C(c1cccc(NS(=O)(=O)c3ccc(NO)cc3)c1)C1CC1)CCCCCC2 (stereo not drawn) [Example 348 (Second Title Compound), N-[3-[cyclopropyl(5,6,7,8,9,10-hexahydro-4-hydroxy-2-oxo-2H-cycloocta[b]pyran-3-yl)methyl]phenyl]4-(hydroxyamino)-benzenesulfonamide] | 38.6% | 81% | 102% | 109% | 113% | 98.7% | 1.7 nM
O=c1oc2c(c(O)c1C(c1cccc(NS(=O)(=O)c3ccc(NS(=O)(=O)c4ccccc4)cc3)c1)C1CC1)CCCCCC2 (stereo not drawn) [Example 349, N-[3-[Cyclopropyl(5,6,7,8,9,10-hexahydro-4-hydroxy-2-oxo-2H-cycloocta[b]pyran-3-yl)methyl]phenyl]4-[(phenylsulfonyl)amino]-benzenesulfonamide] |  | 38.4% | 69% | 86.4% | 96.7% | 88.5% | 33.8 nM
O=c1oc2c(c(O)c1C(c1cccc(NS(=O)(=O)c3cccc(NS(=O)(=O)c4ccccc4)c3)c1)C1CC1)CCCCCC2 (stereo not drawn) [Example 350, N-[3-[Cyclopropyl(5,6,7,8,9,10-hexahydro-4-hydroxy-2-oxo-2H-cycloocta[b]pyran-3-yl)methyl]phenyl]-3-[(phenylsulfonyl)amino]-benzenesulfonamide] | 22.2% | 64.3% | 82.2% | 98.3% | 102% | 101% | 6.6 nM
O=C(Nc1cccc(S(=O)(=O)Nc2cccc(C(c3c(O)c4c(oc3=O)CCCCCC4)C3CC3)c2)c1)c1ccccc1 (stereo not drawn) [Example 351, N-[3-[[[3-[Cyclopropyl(5,6,7,8,9,10-hexahydro4-hydroxy-2-oxo-2H-cycloocta[b]pyran-3-yl)methyl]phenyl]amino]sulfonyl]phenyl]-benzamide] | 11.2% | 49.3% | 76.6% | 93.9% | 97.8% | 95.8% | 16.4 nM
CN(C)c1ccc(S(=O)(=O)Nc2cccc(C(c3c(O)c4c(oc3=O)CCCCCC4)C3CC3)c2)cc1 (stereo not drawn) [Example 352, N-[3-[Cyclopropyl(5,6,7,8,9,10-hexahydro-4-hydroxy-2-oxo-2H-cycloocta[b]pyran-3-yl)methyl]phenyl]-4-(dimethylamino)-benzenesulfonamide] | 49.7% | 78.5% | 97.9% | 104% | 102% | 94.6% | 2.84 nM
Nc1cccc(S(=O)(=O)Nc2cccc(C(c3c(O)c4c(oc3=O)CCCCCC4)C3CC3)c2)c1 (stereo not drawn) [Example 353 (First Title Compound), 3-Amino-N-[3-[cyclopropyl(5,6,7,8,9,10-hexahydro-4-hydroxy-2-oxo-2H-cycloocta[b]pyran-3-yl)methyl]phenyl]-benzenesulfonamide] | 48.6% | 83.1% | 92.7% | 97.3% | 103% | 92.9% | 2.25 nM
O=c1oc2c(c(O)c1C(c1cccc(NS(=O)(=O)c3cccc(NO)c3)c1)C1CC1)CCCCCC2 (stereo not drawn) [Example 353 (Second Title Compound), N-[3-[Cyclopropyl(5,6,7,8,9, 10-hexahydro-4-hydroxy-2-oxo-2H-cycloocta[b]pyran-3-yl)methyl]phenyl]-3-(hydroxyamino)-benzenesulfonamide] | 61.4% | 92.7% | 103% | 110% | 113% | 107% | 2.4 nM
COC(=O)c1cccc(S(=O)(=O)Nc2cccc(C(c3c(O)c4c(oc3=O)CCCCCC4)C3CC3)c2)c1 (stereo not drawn) [Example 354, 3-[[[3-[Cyclopropyl(5,6,7,8,9,10-hexahydro-4-hydroxy-2-oxo-2H-cycloocta[b]pyran-3-yl)methyl]phenyl]amino]sulfonyl]-benzoic acid, methyl ester] | 71.4% | 86.4% | 96.1% | 100% | 103% | 108% | 1.45 nM
O=c1oc2c(c(O)c1C(c1cccc(NS(=O)(=O)c3cccc(NCCO)c3)c1)C1CC1)CCCCCC2 (stereo not drawn) [Example 355 (First Title Compound), N-[3-[Cyclopropyl(5,6,7,8,9,10-hexahydro4-hydroxy-2-oxo-2H-cycloocta[b]pyran-3-yl)methyl]phenyl]-3-[(2-ethanol)amino]-benzenesulfonamide] | 117% | 117% | 115% | 103% | 72.6% | 61.9% | 2.14 nM
O=c1oc2c(c(O)c1C(c1cccc(NS(=O)(=O)c3cccc(N(CCO)CCO)c3)c1)C1CC1)CCCCCC2 (stereo not drawn) [Example 355 (Second Title Compound), N-[3-[Cyclopropyl(5,6,7,8,9,10-hexahydro-4-hydroxy-2-oxo-2H-cycloocta[b]pyran-3-yl)methyl]phenyl]-3-[(bis-(2-ethanol))amino]-benzenesulfonamide] | 112% | 111% | 107% | 110% | 110% | 108% | 1.06 nM
O=c1oc2c(c(O)c1C(c1cccc(NS(=O)(=O)c3cccc(CO)c3)c1)C1CC1)CCCCCC2 (stereo not drawn) [Example 356, N-[3-[Cyclopropyl(5,6,7,8,9,10-hexahydro-4-hydroxy-2-oxo-2H-cycloocta[b]pyran-3-yl)methyl]phenyl]-3-[methanol]-benzenesulfonamide] | 97.7% | 97.2% | 97.9% | 101% | 102% | 100% | 1.32 nM
O=c1oc2c(c(O)c1C(c1cccc(NS(=O)(=O)c3cccc(N4CCCS4(=O)=O)c3)c1)C1CC1)CCCCCC2 (stereo not drawn) [Example 357, N-[3-[Cyclopropyl[3-(2-isothiazolidinyl)phenyl]methyl-(5,6,7,8,9,10-hexahydro4-hydroxy-S,S'-dioxide)methyl]phenyl]-3-[(phenylsulfonyl)amino]4-2H-cycloocta[b]pyran2-one] | 104% | 97.2% | 101% | 98.3% | 96.8% | 89.6% | 0.62 nM
